Laboratory results from ChEMBL document CHEMBL1144644, “Synthesis and biological evaluation of 12 allenic aromatic ethers” (Bioorg Med Chem Lett, 2007).

Assays:
KB = experiment: Antitumor activity against KB cells by MTT assay; format: functional, cell-based; conditions: Homo sapiens
[1] = Antitumor activity against KBv200 cells by MTT assay; format: functional, cell-based; conditions: Homo sapiens

| SMILES | IC50 (KB) [µM] | IC50 [1] [µM] |
| --- | --- | --- |
| C=C=CCBr | > 200 | > 200 |
| C=C=CCOC(=O)[C@]1(O)CC(OC(=O)/C=C/c2ccc(OCC=C=C)c(O)c2)[C@@H](O)[C@@H](O)C1 (stereo partly drawn) | 53.1 | 35.7 |
| C=C=CCO | > 200 | > 200 |
| C=C=CCOc1ccc(COc2ccc(C(=O)OC)cc2)cc1 | 75.4 | 52.9 |
| O=C(/C=C/c1ccc(O)c(O)c1)OC1C[C@@](O)(C(=O)O)C[C@H](O)[C@@H]1O (stereo partly drawn) | > 200 | > 200 |
| C=C=CCOc1ccc(C(=O)OC)cc1 | 22.5 | 20.9 |
| C=C=CCOc1ccc(/C=C/C(=O)OC)cc1 | 27.6 | 19 |
| C=C=CCOc1ccc(C(=O)O)cc1 | 40.6 | 49.6 |
| C=C=CCOc1ccc(/C=C/C(=O)OC)cc1O | 29.4 | 23.4 |
| C=C=CCOc1ccc(COc2ccc(/C=C/C(=O)OC)cc2OC)cc1 | 34.6 | 30.3 |
| C=C=CCOc1ccc(/C=C/C(=O)O)cc1 | 71.5 | 52.4 |
| COC(=O)/C=C/c1ccc(O)c(OC)c1 | > 200 | > 200 |
| COC(=O)C1(N)CC1 | 135 | > 200 |
| C=C=CCOc1ccc(COc2ccc(/C=C/C(=O)OC)cc2)cc1 | 48.8 | 55.5 |
| COC(=O)C1(NC(=O)/C=C/c2ccc(O)cc2)CC1 | > 200 | > 200 |
| C=C=CCOc1ccc(/C=C/C(=O)OC)cc1OC | 17.4 | 18.3 |
| C=C=CCOc1ccc(/C=C/C(=O)NC2(C(=O)OC)CC2)cc1 | 48.1 | 77 |
| O=C(O)/C=C/c1ccc(O)cc1 [COUMARIC ACID] | > 200 | > 200 |
| COC(=O)/C=C/c1ccc(O)cc1 [METHYL P-HYDROXYCINNAMATE] | 123 | 101 |
| COC(=O)/C=C/c1ccc(O)c(O)c1 [METHYLCAFFEATE] | > 200 | > 200 |
| COC(=O)c1ccc(O)cc1 [METHYLPARABEN] | > 200 | > 200 |
| O=C(O)c1ccc(O)cc1 [PARABEN] | > 200 | > 200 |
| OCc1ccc(O)cc1 [PARAHYDROXYBENZYL ALCOHOL] | > 200 | > 200 |
| C=C=CCOc1ccc(CO)cc1 [TERRICOLLENE C] | 74.5 | 76.6 |
